Results on 98 compounds are retold here after ChEMBL document CHEMBL3507680, “University of Dundee, Gates Library screen for HepG2 cell viability”.

This data set in a line: Human HepG2 cell viability assay in 384 well format. Further details: dose 125 nL, time 70.5 hour; cytotoxicity at 70.5 h: concentration not given beside the values. The note with it: HepG2 cells, read-out: Inhibition. It is filed as toxicity, cell-based.
In the case of `CC1CCN(c2nc3c(cnn3-c3ccccc3)c(=O)[nH]2)CC1`, the cytotoxicity at 70.5 h was -5.83%.

As to `CNC(=O)NC(=O)CN1CCC(c2cccc(F)c2)C1` (stereo not drawn), the cytotoxicity at 70.5 h was -4.22%.

`c1ccc(-c2nc3c(c(NCCCn4cncn4)n2)CCNCC3)nc1`: the cytotoxicity at 70.5 h was -13.5%.

With `CCn1nc(C)c(NC(=O)c2cc(NC(=O)C(C)C)n(C)n2)c1C`, the cytotoxicity at 70.5 h is -5.54%.

On to `Cc1ccc(OCCC(=O)NC2CCc3nccn3C2)cc1` (stereo not drawn), for which the cytotoxicity at 70.5 h stood at 0.164%.

Consider `CCCC(=O)N1C[C@@H]2CCN(c3cnccn3)C[C@@H]2C1`, for which the cytotoxicity at 70.5 h was found to be 8.32%.

On to `O=C1C(NCc2ccc3c(c2)CCO3)CCN1Cc1ccccc1` (stereo not drawn), for which the cytotoxicity at 70.5 h was -14.7%.

In the case of `Cc1ccc(O[C@@H]2C[C@H]3CN(Cc4nccn4C)CCN3C2)cc1`, the cytotoxicity at 70.5 h was -4.55%.

With `Cc1noc(C)c1CN1CC2(CCN(Cc3c[nH]cn3)CC2)CC1=O`, the cytotoxicity at 70.5 h was -2.12%.

Consider `CC(C)C(=O)NC1CCCN(C(=O)c2ccc(O)c(Cl)c2)C1` (stereo not drawn), for which the cytotoxicity at 70.5 h is -9.92%.

As to `Fc1ccccc1C1(CNC2CCOC3(CCOCC3)C2)CCCC1` (stereo not drawn), the cytotoxicity at 70.5 h was -9.34%.

Take `Cc1cc(NC(=O)CCn2nc(C)c3ccccc32)n(C)n1`: the cytotoxicity at 70.5 h is -1.96%.

As for `Cc1ccnc(SCC(=O)Nc2csc3nc(=O)c(C)nn23)n1`, the cytotoxicity at 70.5 h worked out at 7.67%.

Consider `CCn1cc(NC(=O)CN2CCC(Oc3ccc(F)cc3)CC2)c(C)n1`, for which the cytotoxicity at 70.5 h stood at 5.01%.

Regarding `Nc1nc(N)c2c(n1)OC1(COCCN(Cc3nccs3)C1)C2` (stereo not drawn), the cytotoxicity at 70.5 h is -10.4%.

In the case of `Cc1cccc(N(C)S(=O)(=O)c2cc(C(=O)O)cs2)c1C`, the cytotoxicity at 70.5 h was -5.76%.

With `COc1ccc(C(=O)N2CCC(c3nccn3C(C)C)CC2)cc1OC`, the cytotoxicity at 70.5 h was 22.5%.

Take `CN(Cc1cc(C(C)(C)C)n[nH]1)Cc1c[nH]nc1-c1ccc(F)cc1`: the cytotoxicity at 70.5 h was -4.87%.

As to `Cc1ccc(NC(C)C(=O)NCc2cccs2)cc1Cl` (stereo not drawn), the cytotoxicity at 70.5 h stood at 5.9%.

Turning to `CN(C1CCN(c2ccccn2)CC1)S(=O)(=O)c1cccc(F)c1`, the cytotoxicity at 70.5 h is 2.86%.

On to `c1ccc2cc(OCCN3CCOC(Cn4cncn4)C3)ccc2c1` (stereo not drawn), for which the cytotoxicity at 70.5 h came to 27.8%.

With `Cc1ccc(C)c(-n2ncc(NC(=O)NC3(C)CCOC3)c2C)c1` (stereo not drawn), the cytotoxicity at 70.5 h worked out at 14.4%.

In the case of `NC(=O)C1CCN(c2cncc(-n3cccn3)n2)CC1`, the cytotoxicity at 70.5 h is 6.36%.

In the case of `CC(C)(C)c1n[nH]c(C2CN(C(=O)c3cnc[nH]3)CCO2)n1` (stereo not drawn), the cytotoxicity at 70.5 h is -7.66%.

As for `CSc1nccc(N2C[C@@H](CN3CCCCC3)[C@@H](CO)C2)n1`, the cytotoxicity at 70.5 h was 27.1%.

In the case of `COCCN1CCC12CCN(C(=O)c1ccsc1)CC2`, the cytotoxicity at 70.5 h is -11.4%.

Turning to `CN(C)C(=O)CN1CCC(c2cncc(-c3cccc(Cl)c3)n2)CC1`, the cytotoxicity at 70.5 h is -7.08%.

`CC(C)c1ncc(C(=O)N2CCOCC2CC(=O)c2ccco2)s1` (stereo not drawn): the cytotoxicity at 70.5 h was -2.34%.

Consider `CCC(=O)c1cccc(S(=O)(=O)NC(C)C#N)c1` (stereo not drawn), for which the cytotoxicity at 70.5 h is -11%.

With `CC/N=c1\nc(NCC)nc2n1C(O)(Nc1cccc(Cl)c1Cl)CS2` (stereo not drawn), the cytotoxicity at 70.5 h was -1.29%.

On to `C[C@H](NC(=O)OC(C)(C)C)c1nnc(S(=O)(=O)Cc2cccc(F)c2)o1`, for which the cytotoxicity at 70.5 h was -6.88%.

Regarding `Cn1cc(N2CCC3(CCCN(Cc4ccoc4)C3)C2=O)cn1` (stereo not drawn), the cytotoxicity at 70.5 h is -6.63%.

For the compound `Cc1ncsc1-c1nc(-c2cccc(CN3CCOCC3)c2)no1`, the cytotoxicity at 70.5 h is -6.25%.

In the case of `CC(C)c1noc(CCC(=O)NCC2CCOC2)n1` (stereo not drawn), the cytotoxicity at 70.5 h is -2.41%.

With `c1cnn(CC2CN(CC3CCCCC3)CCO2)c1` (stereo not drawn), the cytotoxicity at 70.5 h is -0.377%.

Consider `CN(C)c1ncccc1CNCc1ccc(N2CCOCC2)cc1`, for which the cytotoxicity at 70.5 h amounted to 18.9%.

In the case of `Cc1ccc(CNC(=O)N(C)Cc2cnn(C)c2)s1`, the cytotoxicity at 70.5 h was -1.07%.

Regarding `Cc1cccc(C2(CNC(=O)CCN3C(=O)CCC3=O)CCCC2)c1`, the cytotoxicity at 70.5 h came out at 21%.

As to `COCCN1CCO[C@@H]2CN(C(=O)Cc3ccc(F)cc3)CC[C@@H]2C1`, the cytotoxicity at 70.5 h stood at 4.68%.

For `CCN(C)CC1CCN(C(=O)Nc2ccc(-c3cc[nH]n3)cc2)C1` (stereo not drawn), the cytotoxicity at 70.5 h is 11.5%.

For `Cc1occc(=O)c1OCC(=O)N1CCN(c2ccccc2)CC1`, the cytotoxicity at 70.5 h was -0.838%.

Regarding `OCC1N(Cc2ccc(F)cc2)[C@H]2CC[C@]1(O)CC2` (stereo partly drawn), the cytotoxicity at 70.5 h is -7.04%.

Take `CCc1nccn1-c1cncc(C2CCCN2Cc2ccccn2)n1` (stereo not drawn): the cytotoxicity at 70.5 h is -7.66%.

For `Cc1cc(C)c(CNC(=O)N(C)Cc2ccc(F)cc2)c(=O)[nH]1`, the cytotoxicity at 70.5 h is 18.3%.

On to `CCC1CN(C(=O)c2cc(CN(C)CCc3ccccc3)on2)CCO1` (stereo not drawn), for which the cytotoxicity at 70.5 h is -7.15%.

Consider `Cc1ccccc1N(CC(=O)NCCc1nnc2n1CCC2)S(C)(=O)=O`, for which the cytotoxicity at 70.5 h is -4.09%.

As for `COCC(=O)N1CCC2(CC1)CC(OC)CO2` (stereo not drawn), the cytotoxicity at 70.5 h is -7.5%.

Turning to `O=C(NCCn1nc(C2CCNC2)c2cccnc21)c1ccccn1` (stereo not drawn), the cytotoxicity at 70.5 h is -2.16%.

Take `O=C(Nc1ccnc(OC2CCOC2)c1)c1cc(F)ccc1F` (stereo not drawn): the cytotoxicity at 70.5 h was determined as 14.1%.

Take `CN(C)Cc1cc(C2CCN(C(=O)C3CCCNC3)CC2)nn1C` (stereo not drawn): the cytotoxicity at 70.5 h is -5.29%.

Turning to `CC(C)OCCCN(Cc1ccncc1)Cc1cc(F)cc(F)c1`, the cytotoxicity at 70.5 h came out at 58.6%.

On to `Cc1ccc(N2CCN(C3CCc4ccccc4C3)CC2)nn1` (stereo not drawn), for which the cytotoxicity at 70.5 h is -8.25%.

For the compound `Cc1cnc(C)c(N2CCN(CC3CCCO3)CC2)n1` (stereo not drawn), the cytotoxicity at 70.5 h is -6.94%.

Consider `CNC(=O)CN1CCC(c2nn(C)c(=O)n2-c2ccccc2)CC1`, for which the cytotoxicity at 70.5 h is -4.2%.

In the case of `COCCN1CCc2c(cnc(-c3ccoc3)c2C(=O)O)C1`, the cytotoxicity at 70.5 h was -12.1%.

Take `CS(=O)(=O)NC[C@@H]1OC[C@H]2CN(C(=O)c3ccccc3)CC[C@H]21`: the cytotoxicity at 70.5 h was determined as 15.9%.

On to `O=C(N1CCCCC1)N1CCCC1c1nnc2n1CCNC2` (stereo not drawn), for which the cytotoxicity at 70.5 h stood at 17.6%.

On to `Cc1nonc1C1CCCN1C(=O)c1cc2n(n1)CCCNC2` (stereo not drawn), for which the cytotoxicity at 70.5 h was 4.03%.

As for `COc1cccc(CSCC(=O)NCc2cccnc2)c1`, the cytotoxicity at 70.5 h is -3.51%.

Turning to `O=C(c1cncc(N2CCC3(CCCNC3)C2)n1)N1CCCC1` (stereo not drawn), the cytotoxicity at 70.5 h was -5.37%.

As to `Cc1ccccc1CC(=O)N[C@@H]1CCC[C@@H](N2CCNC(=O)C2)[C@@H]1O`, the cytotoxicity at 70.5 h is -6.12%.

For `COc1c(CNCc2ccc(N3CCOCC3)cc2)c(C)nn1C`, the cytotoxicity at 70.5 h was -9.85%.

On to `Cc1nc(CN2CCCCC2CCc2cccs2)co1` (stereo not drawn), for which the cytotoxicity at 70.5 h is -9.07%.

Take `Fc1cccc(F)c1Cn1c(C2CCNCC2)cc2cccnc21`: the cytotoxicity at 70.5 h is 3.7%.

Regarding `COc1nccc(N2CC[C@H](N3CCOCC3)[C@H](CCCO)C2)c1C#N`, the cytotoxicity at 70.5 h is -7.48%.

On to `Cc1ncnc2c1CCN(C(=O)CN(C)C)CC2`, for which the cytotoxicity at 70.5 h came to 19.6%.

Consider `CN(Cc1ccc2c(c1)OCCO2)Cc1nnnn1-c1ccccc1`, for which the cytotoxicity at 70.5 h is -17.2%.

For `O=S(=O)(CCNCCn1cccn1)c1ccccc1`, the cytotoxicity at 70.5 h is -18.7%.

In the case of `O=C(Nc1cc(C(F)(F)F)c[nH]c1=O)N1CCOCC1`, the cytotoxicity at 70.5 h was -12.9%.

In the case of `Cc1nc(NC(=O)C(C)N2CCN(c3cnccn3)CC2)sc1C` (stereo not drawn), the cytotoxicity at 70.5 h is -4.32%.

`CN(C)C(=O)Cc1ccccc1NCc1noc(-c2ccccc2)n1`: the cytotoxicity at 70.5 h came out at 2.37%.

Consider `CCc1[nH]c2ccc(CNC(=O)Cc3c(C)nc(N)nc3C)cc2c1C`, for which the cytotoxicity at 70.5 h was 1.33%.

Turning to `COc1cc(N2CC[C@@H]3O[C@@H](c4ccncn4)C[C@H]3C2)ncn1`, the cytotoxicity at 70.5 h came to 7.96%.

Consider `COc1ccc(CN2CCc3[nH]nc(C(=O)N(C)C)c3C2)cc1`, for which the cytotoxicity at 70.5 h is -8.01%.

In the case of `CCN(Cc1nc(COC)no1)Cc1ccccc1OCC(=O)O`, the cytotoxicity at 70.5 h turned out to be 20%.

On to `O=C1OCCN1CCS(=O)(=O)c1cccc(Br)c1`, for which the cytotoxicity at 70.5 h is -2.02%.

For `COC(=O)[C@H]1C[C@@H](O)CCN1S(=O)(=O)c1c(C)cc(OC)c(C)c1C`, the cytotoxicity at 70.5 h was 27%.

With `COc1ccc(NCc2nc(=O)n(CCC(C)C)[nH]2)cc1`, the cytotoxicity at 70.5 h was -14.5%.

Turning to `CCC(Nc1cccc(OC)c1)C(=O)NCc1nc(C)cc(=O)[nH]1` (stereo not drawn), the cytotoxicity at 70.5 h is -5.76%.

`COCC(=O)Nc1cc(Br)cnc1OCC(F)(F)F`: the cytotoxicity at 70.5 h was -11.8%.

In the case of `c1cc(CN2CCC(c3nnc4n3CCCCC4)CC2)c2nonc2c1`, the cytotoxicity at 70.5 h was 12.2%.

With `Cc1nc(C)n(C2CCCN(C(=O)c3ccn(C(C)C)n3)C2)n1` (stereo not drawn), the cytotoxicity at 70.5 h was -6.2%.

As to `Cc1ccc(-n2ccnc2)c(C(=O)NCCCN(C)C)c1`, the cytotoxicity at 70.5 h was 2%.

`CC(Cc1cccc(F)c1)C(=O)NS(=O)(=O)c1cnn(C)c1` (stereo not drawn): the cytotoxicity at 70.5 h is -1.2%.

Turning to `CC(C)n1nc(CN2CCCC2=O)c2c1CN(C(=O)c1ccco1)C2`, the cytotoxicity at 70.5 h is -5.68%.

`CC(C)NC(=O)CC1(Cn2cnnn2)CCCCC1`: the cytotoxicity at 70.5 h is -22.1%.

As for `CCc1ncc(CN2C[C@H]3CC[C@@H]2CN(C(=O)C2CCC2)C3)cn1`, the cytotoxicity at 70.5 h is -6.96%.

For `FC(F)(F)CCc1ccnc(NC2CCOC2)n1` (stereo not drawn), the cytotoxicity at 70.5 h is 27.9%.

For the compound `CCCc1cc(NC(=O)c2cccc(N3CCCNC3=O)c2)n[nH]1`, the cytotoxicity at 70.5 h is -6.61%.

On to `OC(COc1ccccc1Br)COC1CCOCC1` (stereo not drawn), for which the cytotoxicity at 70.5 h was determined as 0.581%.

In the case of `c1ncn(Cc2nnc(C3CCN(C4CCOCC4)CC3)n2C2CC2)n1`, the cytotoxicity at 70.5 h is -7.09%.

For `CCCn1ccnc1CN1C[C@@H](CN2CCCN(C)CC2)[C@@H](CO)C1`, the cytotoxicity at 70.5 h is -9.5%.

Turning to `CCC(=O)N1CCN(C(=O)c2ccc(OC)o2)[C@H]2CS(=O)(=O)C[C@H]21`, the cytotoxicity at 70.5 h was -4.25%.

As for `CC(C)CCC(=O)N1CCCC1c1nnc2n1CCCCC2` (stereo not drawn), the cytotoxicity at 70.5 h is -6.64%.

As for `CCOCC1CN(C(=O)c2cscn2)Cc2cnn(CC3CC3)c21` (stereo not drawn), the cytotoxicity at 70.5 h turned out to be 8.12%.

Take `Cc1cc(C2CCCN2c2ncc(C(N)=O)cc2Cl)no1` (stereo not drawn): the cytotoxicity at 70.5 h was -0.208%.

As for `CNS(=O)(=O)CCn1cc(-c2ccc(NC(C)=O)cc2)nn1`, the cytotoxicity at 70.5 h amounted to 3.8%.

Take `CN1CCN([C@H]2CCN(C(=O)c3cc(Cl)cn3C)C[C@H]2CCCO)CC1`: the cytotoxicity at 70.5 h was -14.3%.
